Drawing on patent US20080114007A1 (priority 2006, published 2008), this text covers IC50 for 26 compounds.

This assay addresses CSF-1R (Homo sapiens, UniProt P07333). Kind of assay: Peptide (non-phosphorylated) assay, fluorescence polarization competition immunoassay. Type of assay: biochemical. The conditions noted are these: 308 μM SYEGNSYTFIDPTQ peptide, 1 mM ATP, 80 min, mean of at least three determinations. Summed up: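 Human CSF-1R kinase reaction started with ATP and run 80 min at room temperature, then stopped with EDTA. Phosphopeptide detected by fluorescence polarization competition using anti-phosphotyrosine antibody and PTK green tracer after 30 min. Controls used 4% DMSO, with EDTA added before reaction start for positive controls.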

[1] abbreviates: 0.7 nM CSF-1R, read-out: c-fms Peptide IC50.

Like-named read-outs stand apart in the source and are kept apart here.

CSF-1R, sequence (P07333 20-972): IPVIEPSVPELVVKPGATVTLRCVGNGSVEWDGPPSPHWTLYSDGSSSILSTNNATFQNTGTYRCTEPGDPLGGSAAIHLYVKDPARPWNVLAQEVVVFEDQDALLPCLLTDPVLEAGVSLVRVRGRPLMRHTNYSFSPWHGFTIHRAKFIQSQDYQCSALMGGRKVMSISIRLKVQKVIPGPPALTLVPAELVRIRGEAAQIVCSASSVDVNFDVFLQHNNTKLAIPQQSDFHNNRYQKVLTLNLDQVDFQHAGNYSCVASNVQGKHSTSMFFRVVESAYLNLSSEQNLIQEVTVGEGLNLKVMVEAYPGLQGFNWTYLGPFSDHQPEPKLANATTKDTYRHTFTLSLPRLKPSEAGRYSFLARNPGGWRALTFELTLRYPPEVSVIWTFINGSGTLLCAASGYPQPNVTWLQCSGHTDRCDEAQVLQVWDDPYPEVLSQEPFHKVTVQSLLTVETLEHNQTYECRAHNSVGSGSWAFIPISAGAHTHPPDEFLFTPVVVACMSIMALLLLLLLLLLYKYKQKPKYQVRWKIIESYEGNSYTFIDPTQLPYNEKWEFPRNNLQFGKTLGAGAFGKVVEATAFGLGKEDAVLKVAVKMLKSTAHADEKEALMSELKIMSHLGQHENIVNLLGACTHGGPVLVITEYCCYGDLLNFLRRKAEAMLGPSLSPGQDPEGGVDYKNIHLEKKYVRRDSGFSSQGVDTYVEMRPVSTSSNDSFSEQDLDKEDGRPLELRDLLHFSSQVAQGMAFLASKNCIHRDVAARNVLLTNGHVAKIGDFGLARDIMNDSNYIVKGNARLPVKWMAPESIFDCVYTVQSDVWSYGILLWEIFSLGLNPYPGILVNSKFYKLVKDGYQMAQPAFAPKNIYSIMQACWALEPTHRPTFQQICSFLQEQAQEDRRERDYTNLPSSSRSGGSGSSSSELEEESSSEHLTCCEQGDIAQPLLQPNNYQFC

Turning to `CONC(=O)c1cn(-c2ccc3c(c2)CCC3)c2nc(Nc3cccc(CCN4CCN(S(C)(=O)=O)CC4)c3)ncc2c1=O` [Cpd 203, 8-indan-5-yl-2-{3-[2-(4-methanesulfonyl-piperazin-1-yl)-ethyl]-phenylamino}-5-oxo-5,8-dihydro-pyrido[2,3-d]pyrimidine-6-carboxylic acid methoxy-amide], the half-inhibitory concentration (IC50) under setting [1] came out at 1.4 nM.
Still for that read-out and setting: the figure for `CONC(=O)c1cn(-c2ccc3c(c2)CCC3)c2nc(Nc3cccc(CCN4CCN(C(C)=O)CC4)c3)ncc2c1=O` [Cpd 204, 2-{3-[2-(4-acetyl-piperazin-1-yl)-ethyl]-phenylamino}-8-indan-5-yl-5-oxo-5,8-dihydro-pyrido[2,3-d]pyrimidine-6-carboxylic acid methoxy-amide] is 1.2 nM; for `CONC(=O)c1cn(-c2ccc3c(c2)CCC3)c2nc(Nc3cccc(CCN4CCS(=O)(=O)CC4)c3)ncc2c1=O` [Cpd 205, 2-{3-[2-(1,1-dioxo-1λ^6-thiomorpholin-4-yl)-ethyl]-phenylamino}-8-indan-5-yl-5-oxo-5,8-dihydro-pyrido[2,3-d]pyrimidine-6-carboxylic acid methoxy-amide] it is 1 nM.
As to `CONC(=O)c1cn(-c2ccc3c(c2)CCC3)c2nc(Nc3ccc(CCN4CCS(=O)(=O)CC4)cc3)ncc2c1=O` [Cpd 206, 2-{4-[2-(1,1-dioxo-1λ^6-thiomorpholin-4-yl)-ethyl]-phenylamino}-8-indan-5-yl-5-oxo-5,8-dihydro-pyrido[2,3-d]pyrimidine-6-carboxylic acid methoxy-amide], the IC50 under setting [1] amounted to 1.2 nM.
On the same count and under the same terms, the figure for `CCc1ccc(-n2cc(C(=O)NOC)c(=O)c3cnc(Nc4ccc(C5CCN(CCOC)CC5)cc4)nc32)cc1` [Cpd 207, 8-(4-ethyl-phenyl)-2-{4-[1-(2-methoxy-ethyl)-piperidin-4-yl]-phenylamino}-5-oxo-5,8-dihydro-pyrido[2,3-d]pyrimidine-6-carboxylic acid methoxy-amide] is 0.3 nM; for `CCN1CCC(c2ccc(Nc3ncc4c(=O)c(C(=O)NOC)cn(C5CCC(C)(C)CC5)c4n3)cc2)CC1` [Cpd 208, 8-(4,4-dimethyl-cyclohexyl)-2-[4-(1-ethyl-piperidin-4-yl)-phenylamino]-5-oxo-5,8-dihydro-pyrido[2,3-d]pyrimidine-6-carboxylic acid methoxy-amide] it is 0.4 nM.
`CONC(=O)c1cn(C2CCC(C)(C)CC2)c2nc(Nc3ccc(C4CCN(C)CC4)cc3)ncc2c1=O` [Cpd 209, 8-(4,4-dimethyl-cyclohexyl)-2-[4-(1-methyl-piperidin-4-yl)-phenylamino]-5-oxo-5,8-dihydro-pyrido[2,3-d]pyrimidine-6-carboxylic acid methoxy-amide] gave an IC50 (c-fms Peptide IC50, 0.7 nM CSF-1R) of 0.4 nM.
For `CONC(=O)c1cn(C2CCC(C)(C)CC2)c2nc(Nc3ccc(C4CCN(CCO)CC4)cc3)ncc2c1=O` [Cpd 210, 8-(4,4-dimethyl-cyclohexyl)-2-{4-[1-(2-hydroxy-ethyl)-piperidin-4-yl]-phenylamino}-5-oxo-5,8-dihydro-pyrido[2,3-d]pyrimidine-6-carboxylic acid methoxy-amide], the IC50 under setting [1] was found to be 0.25 nM.
Still for that read-out and setting: the figure for `CCc1cccc(-n2cc(C(=O)NOC)c(=O)c3cnc(Nc4ccc(C5CCN(C)CC5)cc4)nc32)c1` [Cpd 212, 8-(3-ethyl-phenyl)-2-[4-(1-methyl-piperidin-4-yl)-phenylamino]-5-oxo-5,8-dihydro-pyrido[2,3-d]pyrimidine-6-carboxylic acid methoxy-amide] is 0.36 nM; for `CCc1ccc(-n2cc(C(=O)NOC)c(=O)c3cnc(Nc4ccc(NCCCOC)cc4)nc32)cc1` [Cpd 213, 8-(4-ethyl-phenyl)-2-[4-(3-methoxy-propylamino)-phenylamino]-5-oxo-5,8-dihydro-pyrido[2,3-d]pyrimidine-6-carboxylic acid methoxy-amide] it is 1.1 nM.
Same read-out and setting: the figure for `CONC(=O)c1cn(-c2ccc3c(c2)CCC3)c2nc(Nc3ccc(C(=O)NS(C)(=O)=O)cc3)ncc2c1=O` [Cpd 214, 8-indan-5-yl-2-(4-methanesulfonylaminocarbonyl-phenylamino)-5-oxo-5,8-dihydro-pyrido[2,3-d]pyrimidine-6-carboxylic acid methoxy-amide] is 1.6 nM.
Still for that read-out and setting: the figure for `CCc1ccc(-n2cc(C(=O)NOC)c(=O)c3cnc(Nc4cccc(OCCOC)c4)nc32)cc1` [Cpd 215, 8-(4-ethyl-phenyl)-2-[3-(2-methoxy-ethoxy)-phenylamino]-5-oxo-5,8-dihydro-pyrido[2,3-d]pyrimidine-6-carboxylic acid methoxy-amide] is 1 nM; for `CCc1ccc(-n2cc(C(=O)NOC)c(=O)c3cnc(Nc4cccc(OCCCOC)c4)nc32)cc1` [Cpd 216, 8-(4-ethyl-phenyl)-2-[3-(3-methoxy-propoxy)-phenylamino]-5-oxo-5,8-dihydro-pyrido[2,3-d]pyrimidine-6-carboxylic acid methoxy-amide] it is 1.6 nM.
Consider `CCc1ccc(-n2cc(C(=O)NOC)c(=O)c3cnc(Nc4ccc(NCCS(C)(=O)=O)cc4)nc32)cc1` [Cpd 217, 8-(4-ethyl-phenyl)-2-[4-(2-methanesulfonyl-ethylamino)-phenylamino]-5-oxo-5,8-dihydro-pyrido[2,3-d]pyrimidine-6-carboxylic acid methoxy-amide], for which the IC50 under setting [1] came out at 0.62 nM.
Still for that read-out and setting: the same measure for `CCOC(=O)CN1CCC(c2ccc(Nc3ncc4c(=O)c(C(=O)NOC)cn(-c5ccc6c(c5)CCC6)c4n3)cc2)CC1` [Cpd 218, {4-[4-(8-indan-5-yl-6-methoxycarbamoyl-5-oxo-5,8-dihydro-pyrido[2,3-d]pyrimidin-2-ylamino)-phenyl]-piperidin-1-yl}-acetic acid ethyl ester]: 1.2 nM; for `CONC(=O)c1cn(-c2ccc3c(c2)CCC3)c2nc(Nc3ccc(C4CCN(CC(=O)O)CC4)cc3)ncc2c1=O` [Cpd 219, {4-[4-(8-indan-5-yl-6-methoxycarbamoyl-5-oxo-5,8-dihydro-pyrido[2,3-d]pyrimidin-2-ylamino)-phenyl]-piperidin-1-yl}-acetic acid]: 2.2 nM; for `CONC(=O)c1cn(-c2ccc3c(c2)CCC3)c2nc(Nc3ccc(CCN4CCN(C)C(=O)C4)cc3)ncc2c1=O` [Cpd 220, 8-indan-5-yl-2-{4-[2-(4-methyl-3-oxo-piperazin-1-yl)-ethyl]-phenylamino}-5-oxo-5,8-dihydro-pyrido[2,3-d]pyrimidine-6-carboxylic acid methoxy-amide]: 0.75 nM.
Still for that read-out and setting: the same measure for `CCc1ccc(-n2cc(C(=O)NOC)c(=O)c3cnc(Nc4ccc(CCN5CCN(C)C(=O)C5)cc4)nc32)cc1` [Cpd 221, 8-(4-ethyl-phenyl)-2-{4-[2-(4-methyl-3-oxo-piperazin-1-yl)-ethyl]-phenylamino}-5-oxo-5,8-dihydro-pyrido[2,3-d]pyrimidine-6-carboxylic acid methoxy-amide]: 0.87 nM; for `CN1CCC(c2ccc(Nc3ncc4c(=O)c(C(=O)O)cn(-c5ccc6c(c5)CCC6)c4n3)cc2)CC1` [Cpd 222, 8-indan-5-yl-2-[4-(1-methyl-piperidin-4-yl)-phenylamino]-5-oxo-5,8-dihydro-pyrido[2,3-d]pyrimidine-6-carboxylic acid]: 29 nM; for `CCc1ccc(-n2cc(C(=O)NOC)c(=O)c3cnc(Nc4ccc(CCN5CCNC(=O)C5)cc4)nc32)cc1` [Cpd 224, 8-(4-ethyl-phenyl)-5-oxo-2-{4-[2-(3-oxo-piperazin-1-yl)-ethyl]-phenylamino}-5,8-dihydro-pyrido[2,3-d]pyrimidine-6-carboxylic acid methoxy-amide]: 0.58 nM.
As to `CONC(=O)c1cn(-c2cnc3c(c2)CCC3)c2nc(Nc3ccc(C4CCN(C)CC4)cc3)ncc2c1=O` [Cpd 225, 8-(6,7-dihydro-5H-[1]pyrindin-3-yl)-2-[4-(1-methyl-piperidin-4-yl)-phenylamino]-5-oxo-5,8-dihydro-pyrido[2,3-d]pyrimidine-6-carboxylic acid methoxy-amide], the IC50 under setting [1] was found to be 7 nM.
Still for that read-out and setting: the figure for `CONC(=O)c1cn(-c2cnc3c(c2)CCC3)c2nc(Nc3ccc(CCS(C)(=O)=O)cc3)ncc2c1=O` [Cpd 226, 8-(6,7-dihydro-5H-[1]pyrindin-3-yl)-2-[4-(2-methanesulfonyl-ethyl)-phenylamino]-5-oxo-5,8-dihydro-pyrido[2,3-d]pyrimidine-6-carboxylic acid methoxy-amide] is 7.7 nM; for `CONC(=O)c1cn(-c2cnc3c(c2)CCC3)c2nc(Nc3ccc(CCO)cc3)ncc2c1=O` [Cpd 227, 8-(6,7-dihydro-5H-[1]pyrindin-3-yl)-2-[4-(2-hydroxy-ethyl)-phenylamino]-5-oxo-5,8-dihydro-pyrido[2,3-d]pyrimidine-6-carboxylic acid methoxy-amide] it is 10 nM; for `CCc1ccc(-n2cc(C(=O)NOC)c(=O)c3cnc(Nc4cccc(NC(=O)CN(C)C)c4)nc32)cc1` [Cpd 228, 2-[3-(2-dimethylamino-acetylamino)-phenylamino]-8-(4-ethyl-phenyl)-5-oxo-5,8-dihydro-pyrido[2,3-d]pyrimidine-6-carboxylic acid methoxy-amide] it is 0.68 nM.
For the compound `CONC(=O)c1cn(-c2ccc3c(c2)CCC3)c2nc(Nc3cccc(NC(=O)CN(C)C)c3)ncc2c1=O` [Cpd 229, 2-[3-(2-dimethylamino-acetylamino)-phenylamino]-8-indan-5-yl-5-oxo-5,8-dihydro-pyrido[2,3-d]pyrimidine-6-carboxylic acid methoxy-amide], the IC50 under setting [1] was 0.42 nM.
Regarding `CONC(=O)c1cn(-c2ccc3c(c2)CCC3)c2nc(Nc3cccc(S(=O)(=O)CCN(C)C)c3)ncc2c1=O` [Cpd 230, 2-[3-(2-dimethylamino-ethanesulfonyl)-phenylamino]-8-indan-5-yl-5-oxo-5,8-dihydro-pyrido[2,3-d]pyrimidine-6-carboxylic acid methoxy-amide], the concentration for half-maximal inhibition (IC50) under setting [1] came out at 1.1 nM.

In general, IC50 refers to the concentration that gives 50% inhibition.
